# According to patent US20250018014A1, “METHOD FOR TREATING AND/OR PREVENTING REGNASE-1-RELATED DISEASE” (OSAKA UNIVERSITY, priority 2018, published 2025):
# Like-named read-outs stand apart in the source and are kept apart here. Residues, ends and D or L forms follow the SMILES beside them.
# Experiments:
# Format in all cases: biochemical
# [1] = target: T1, ΔCTD_Reg1 (amino acids 1 to 546 of human Regnase-1) phosphorylation by IKKβ (Homo sapiens, UniProt Q5D1E8); assay: Regnase-1 phosphorylation inhibition by compounds (AlphaScreen), IKKβ, CTD-deficient Regnase-1
# T1 construct: made in house; host or cells: Expi293 cells
# T1 sequence (Q5D1E8 1-546): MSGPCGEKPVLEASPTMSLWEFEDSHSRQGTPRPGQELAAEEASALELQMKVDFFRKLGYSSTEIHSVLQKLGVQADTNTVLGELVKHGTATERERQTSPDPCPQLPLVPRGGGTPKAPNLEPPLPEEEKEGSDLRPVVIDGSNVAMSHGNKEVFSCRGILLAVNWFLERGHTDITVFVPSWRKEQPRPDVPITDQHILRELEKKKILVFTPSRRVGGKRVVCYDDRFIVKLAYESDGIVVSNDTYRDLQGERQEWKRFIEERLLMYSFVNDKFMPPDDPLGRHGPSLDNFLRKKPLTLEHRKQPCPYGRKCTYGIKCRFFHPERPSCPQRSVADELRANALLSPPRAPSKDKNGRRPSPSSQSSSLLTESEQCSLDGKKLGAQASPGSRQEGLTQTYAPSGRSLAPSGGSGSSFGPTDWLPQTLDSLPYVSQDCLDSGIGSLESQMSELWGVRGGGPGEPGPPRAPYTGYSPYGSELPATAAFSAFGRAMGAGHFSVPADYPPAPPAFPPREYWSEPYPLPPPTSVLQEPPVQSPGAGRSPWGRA
# Experimental: (§1) Among the full-length human Regnase-1 sequence, the 1st to 546th amino acid sequence was prepared and made into a construct having a FLAG tag on the N-terminal side and a biotin ligase BirA recognition sequence on the C-terminal side (herein, a Regnase-1 lacking the C-terminal domain of Regnase-1 (amino acids 547 to 599 in the case of SEQ ID NO: 2) is referred to as “ΔCTD_Reg1”. “ΔCTD_Reg1” is different from “Regnase-1ΔCTD”, which is a C-terminal domain deletion variant resulting from a frameshift mutation caused by a 1 bp deletion at codon 517, as prepared in Example 13). In addition, the sequence from amino acids 301 to 599 of the full-length human Regnase-1 sequence was designated as C-terminal Regnase-1, and a construct having a FLAG tag on the N-terminal side and a recognition sequence for biotin ligase BirA on the C-terminal side was prepared (Reg1_301-599). The above-mentioned Regnase-1 was expressed in mammalian Expi293 cells, purified with FLAG M2 agarose, and isolated by gel filtration chromatography. When biotinylation was required, methods of nonpatent documents (BMC biotechnology, 2008,8,41; and Protein Science, 1999,8,921-929) were used.
# (§2) Using Kinase assay buffer III (manufactured by SignalChem) supplemented with 2 mM DTT, 100 μM sodium vanadate, and 2 mM manganese chloride, kinase (IKKβ (manufactured by SignalChem) or TBK1 (manufactured by SignalChem)) and Regnase-1 were reacted in the presence of 10 μM ATP at room temperature for 2 hours to perform a phosphorylation reaction.
# (§3) Phosphorylated Regnase-1 was detected by the AlphaScreen system. After each of the above-mentioned phosphorylated Regnase-1 antibodies was added and reacted at room temperature for one hour, anti-FLAG AlphaLISA Acceptor Beads (manufactured by PerkinElmer) and Protein A AlphaScreen Donor Beads (manufactured by PerkinElmer) were added, and EnVision (manufactured by PerkinElmer) was used to measure the excited luminescence. As a result, phosphorylated Regnase-1 produced by the phosphorylation reaction by kinase was specifically detected, and signals were confirmed to be enhanced in a manner dependent on Regnase-1 and kinase concentrations (FIG. 24).
# (§4) After mixing 2 nM of the above-mentioned Regnase-1 and the compound, phosphorylated Regnase-1 produced by the phosphorylation reaction was detected by the AlphaScreen system. As the results, the inhibition rate was calculated from the signals obtained when adding the compound at each concentration, by defining the signal obtained with Regnase-1 alone to be 100% inhibition rate, and the signal obtained when the same amount of solvent (DMSO) is added in place of the compound as 0% inhibition rate. The 50% inhibition concentration (μM) was calculated from the obtained dose response curve (Table 11).
# [2] = target: T2, ΔCTD_Reg1 (amino acids 1 to 546 of human Regnase-1) phosphorylation by TBK1 (Homo sapiens, UniProt Q5D1E8); assay: Regnase-1 phosphorylation inhibition by compounds (AlphaScreen), TBK1, CTD-deficient Regnase-1
# T2 construct: made in house; host or cells: Expi293 cells
# T2 sequence (Q5D1E8 1-546): T1 sequence (Q5D1E8 1-546)
# Text: (§5) The full-length sequence of human Regnase-1 (UniProt ID: Q5D1E8) was used to prepare a construct having a FLAG tag on the N-terminal side and a recognition sequence for biotin ligase BirA on the C-terminal side (FL_Reg1) as a target protein. The above-mentioned Regnase-1 was expressed in mammalian Expi293 cells, purified with FLAG M2 agarose, and isolated by gel filtration chromatography. When biotinylation was required, methods from nonpatent documents (BMC biotechnology, 2008,8,41; and Protein Science, 1999,8,921-929) were used.
# as §1, §2, §3, §4
# [3] = target: T3, Reg1_301-599 (amino acids 301-599 of human Regnase-1) phosphorylation by IKKβ (Homo sapiens, UniProt Q5D1E8); assay: Regnase-1 phosphorylation inhibition by compounds (AlphaScreen), IKKβ, C-terminal Regnase-1; conditions: Table 14, read-out: Phosphorylation inhibition Reg1_301-599, 50% inhibition concentration (IKKβ)
# T3 construct: made in house; host or cells: Expi293 cells
# T3 sequence (Q5D1E8 301-599): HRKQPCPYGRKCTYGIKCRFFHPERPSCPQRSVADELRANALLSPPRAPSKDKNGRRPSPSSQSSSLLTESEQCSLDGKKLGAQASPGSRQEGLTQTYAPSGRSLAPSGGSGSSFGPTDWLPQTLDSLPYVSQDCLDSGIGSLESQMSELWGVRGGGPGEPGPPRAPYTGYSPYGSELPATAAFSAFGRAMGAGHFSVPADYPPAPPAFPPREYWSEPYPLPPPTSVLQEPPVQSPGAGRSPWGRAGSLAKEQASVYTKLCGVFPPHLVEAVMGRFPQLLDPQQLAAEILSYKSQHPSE
# Text: as §5, §1, §2, §3, §4
# [4] = target: T4, Reg1_301-599 (amino acids 301-599 of human Regnase-1) phosphorylation by TBK1 (Homo sapiens, UniProt Q5D1E8); assay: Regnase-1 phosphorylation inhibition by compounds (AlphaScreen), TBK1, C-terminal Regnase-1; conditions: Table 13, read-out: Phosphorylation inhibition Reg1_301-599, 50% inhibition concentration (TBK1)
# T4 construct: made in house; host or cells: Expi293 cells
# T4 sequence (Q5D1E8 301-599): T3 sequence (Q5D1E8 301-599)
# Experimental: as §1, §2, §3, §4
# [5] = Table 11, 2 nM Regnase-1, AlphaScreen, read-out: 50% inhibition concentration, Regnase-1 phosphorylation, ΔCTD_Reg1, IKKβ
# [6] = Table 11, 2 nM Regnase-1, AlphaScreen, read-out: 50% inhibition concentration, Regnase-1 phosphorylation, ΔCTD_Reg1, TBK1
# [7] = Table 14, phosphorylation by IKKβ, read-out: Phosphorylation inhibition ΔCTD_Reg1, 50% inhibition concentration (IKKβ)
# [8] = Table 13, phosphorylation by TBK1, read-out: Phosphorylation inhibition ΔCTD_Reg1, 50% inhibition concentration (TBK1)
compound,measurement,setting,value
"CC[C@H](C)[C@@H]1NC(=O)[C@H](Cc2ccc(O)cc2)NC(=O)[C@H](C)N(C)C(=O)C[C@@H](C(=O)N2CCCC2)NC(=O)[C@H](CC(C)C)NC(=O)[C@H](CC(=O)O)NC(=O)CNC(=O)[C@H](Cc2ccccc2)NC(=O)[C@H](Cc2ccccc2)NC(=O)[C@H](CC(=O)O)NC(=O)[C@H](Cc2c[nH]c3ccccc23)NC1=O [PP4] (HELM PEPTIDE1{[meA].Y.I.W.D.F.F.G.D.L.D.[C1CCN([*:1])C1]}$PEPTIDE1,PEPTIDE1,1:R1-11:R3$$$V2.0)",IC50,[1]; [5],8.3 µM
same,IC50,[2]; [6],44.9 µM
"CC[C@H](C)[C@@H]1NC(=O)[C@H](CCCNC(=N)N)NC(=O)[C@H](Cc2ccc(O)cc2)NC(=O)[C@H](Cc2c[nH]c3ccccc23)NC(=O)[C@H](CO)NC(=O)[C@H](CC(N)=O)NC(=O)[C@H](C)N(C)C(=O)C[C@@H](C(=O)N2CCCC2)NC(=O)[C@H](CC(C)C)NC(=O)CNC(=O)[C@H](Cc2c[nH]c3ccccc23)NC1=O [PP22] (HELM PEPTIDE1{[meA].N.S.W.Y.R.I.W.G.L.D.[C1CCN([*:1])C1]}$PEPTIDE1,PEPTIDE1,1:R1-11:R3$$$V2.0)",IC50,[3],31 µM
"CC[C@H](C)[C@@H]1NC(=O)[C@H](CC(N)=O)NC(=O)[C@H](Cc2ccc(O)cc2)NC(=O)[C@H](Cc2c[nH]c3ccccc23)NC(=O)[C@H](CO)NC(=O)[C@H](CC(N)=O)NC(=O)[C@H](CO)NC(=O)[C@H](Cc2ccccc2)NC(=O)[C@H](CC(N)=O)NC(=O)[C@H](C)N(C)C(=O)C[C@@H](C(=O)N2CCCC2)NC(=O)[C@H](Cc2c[nH]c3ccccc23)NC1=O [PP16] (HELM PEPTIDE1{[meA].N.F.S.N.S.W.Y.N.I.W.D.[C1CCN([*:1])C1]}$PEPTIDE1,PEPTIDE1,1:R1-12:R3$$$V2.0)",IC50,[4],> 62.1 µM
"CC[C@H](C)[C@@H]1NC(=O)[C@H](CCCCN)NC(=O)[C@H](Cc2ccc(O)cc2)NC(=O)[C@H](Cc2c[nH]c3ccccc23)NC(=O)[C@H](CO)NC(=O)[C@H](CC(N)=O)NC(=O)[C@H](C)N(C)C(=O)C[C@@H](C(=O)N2CCCC2)NC(=O)[C@H](CC(C)C)NC(=O)CNC(=O)[C@H](Cc2c[nH]c3ccccc23)NC1=O [PP21] (HELM PEPTIDE1{[meA].N.S.W.Y.K.I.W.G.L.D.[C1CCN([*:1])C1]}$PEPTIDE1,PEPTIDE1,1:R1-11:R3$$$V2.0)",IC50,[4],17 µM
"CC[C@H](C)[C@@H]1NC(=O)[C@H](CC(N)=O)NC(=O)[C@H](Cc2ccc(O)cc2)NC(=O)[C@H](Cc2c[nH]c3ccccc23)NC(=O)[C@H](C)NC(=O)[C@H](CC(N)=O)NC(=O)[C@H](CO)NC(=O)[C@H](Cc2c[nH]cn2)NC(=O)[C@H](C)N(C)C(=O)C[C@@H](C(=O)N2CCCC2)NC(=O)[C@H](Cc2c[nH]c3ccccc23)NC1=O [PP5] (HELM PEPTIDE1{[meA].H.S.N.A.W.Y.N.I.W.D.[C1CCN([*:1])C1]}$PEPTIDE1,PEPTIDE1,1:R1-11:R3$$$V2.0)",IC50,[1]; [5],20.4 µM
same,IC50,[2]; [6],19.1 µM
"CC[C@H](C)[C@@H]1NC(=O)[C@H](CCCCN)NC(=O)[C@H](Cc2ccccc2)NC(=O)[C@H](Cc2c[nH]c3ccccc23)NC(=O)[C@H](CO)NC(=O)[C@H](CO)NC(=O)[C@H](CC(N)=O)NC(=O)[C@@H]2CCCN2C(=O)[C@@H](C)N(C)C(=O)C[C@@H](C(=O)N2CCCC2)NC(=O)[C@H](Cc2c[nH]c3ccccc23)NC1=O [PP6] (HELM PEPTIDE1{[C[C@H](C(=O)[*:2])N(C)[*:1]].P.N.S.S.W.F.K.I.W.D.[C1CCN([*:1])C1]}$PEPTIDE1,PEPTIDE1,1:R1-11:R3$$$V2.0)",IC50,[1]; [5],20.3 µM
same,IC50,[2]; [6],14.5 µM
"CC[C@H](C)[C@@H]1NC(=O)[C@H](CC(N)=O)NC(=O)[C@H](Cc2ccc(O)cc2)NC(=O)[C@H](Cc2c[nH]c3ccccc23)NC(=O)[C@H](CO)NC(=O)[C@H](CC(N)=O)NC(=O)[C@H](C)NC(=O)[C@H](Cc2ccc(O)cc2)NC(=O)CNC(=O)[C@H](C)N(C)C(=O)C[C@@H](C(=O)N2CCCC2)NC(=O)[C@H](Cc2c[nH]c3ccccc23)NC1=O [PP2] (HELM PEPTIDE1{[meA].G.Y.A.N.S.W.Y.N.I.W.D.[C1CCN([*:1])C1]}$PEPTIDE1,PEPTIDE1,1:R1-12:R3$$$V2.0)",IC50,[1]; [5],14 µM
same,IC50,[2]; [6],17.6 µM
"CC[C@H](C)[C@@H]1NC(=O)[C@H](CC(=O)O)NC(=O)[C@H](C)N(C)C(=O)C[C@@H](C(=O)N2CCCC2)NC(=O)[C@H](Cc2c[nH]c3ccccc23)NC(=O)[C@H](CC(=O)O)NC(=O)[C@H](Cc2c[nH]c3ccccc23)NC(=O)[C@H](Cc2ccc(O)cc2)NC(=O)[C@H](CC(=O)O)NC(=O)[C@H](Cc2ccccc2)NC(=O)[C@H](Cc2c[nH]c3ccccc23)NC1=O [PP17] (HELM PEPTIDE1{[meA].D.I.W.F.D.Y.W.D.W.D.[C1CCN([*:1])C1]}$PEPTIDE1,PEPTIDE1,1:R1-11:R3$$$V2.0)",IC50,[1]; [7],0.3 µM
same,IC50,[2]; [8],0.3 µM
same,IC50,[4],< 0.06 µM
"CC[C@H](C)[C@@H]1NC(=O)[C@H](CCCCN)NC(=O)[C@H](Cc2ccc(O)cc2)NC(=O)[C@H](Cc2ccccc2)NC(=O)[C@H](C(C)C)NC(=O)[C@H](C)N(C)C(=O)C[C@@H](C(=O)N2CCCC2)NC(=O)[C@H](Cc2c[nH]c3ccccc23)NC(=O)[C@H](CC(N)=O)NC(=O)[C@H](Cc2ccc(O)cc2)NC(=O)[C@H](Cc2c[nH]c3ccccc23)NC1=O [PP19] (HELM PEPTIDE1{[meA].V.F.Y.K.I.W.Y.N.W.D.[C1CCN([*:1])C1]}$PEPTIDE1,PEPTIDE1,1:R1-11:R3$$$V2.0)",IC50,[2]; [8],4.6 µM
same,IC50,[4],5.8 µM
"CC[C@H](C)[C@@H]1NC(=O)[C@H](CC(N)=O)NC(=O)[C@H]([C@@H](C)CC)NC(=O)[C@H](Cc2ccc(O)cc2)NC(=O)[C@H](Cc2c[nH]c3ccccc23)NC(=O)[C@H](CO)NC(=O)[C@H](CC(N)=O)NC(=O)[C@H](C)N(C)C(=O)C[C@@H](C(=O)N2CCCC2)NC(=O)[C@H](Cc2c[nH]cn2)NC(=O)CNC(=O)[C@H](Cc2c[nH]c3ccccc23)NC1=O [PP15] (HELM PEPTIDE1{[meA].N.S.W.Y.I.N.I.W.G.H.D.[C1CCN([*:1])C1]}$PEPTIDE1,PEPTIDE1,1:R1-12:R3$$$V2.0)",IC50,[1]; [7],31 µM
